Experimental data taken from ChEMBL document CHEMBL1201862, “PubChem BioAssay data set” (2004).
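Compound exposure: 48 hours, 5 concentrations, 96-well plates. GI50 marks 50% less growth.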 Activity calls are given as the source filed them. No stated cut-off is given here; in the data, active = GI50 up to about 1.1 µM and inactive = higher.

Columns and labels:
Test in all cases: NCI anticancer screen, dose series, 48 h
786-0 = tested on: 786-0
A549 = tested on: A549
ACHN = tested on: ACHN
CCRF-CEM = tested on: CCRF-CEM
COLO 205 = tested on: COLO 205
HOP-62 = tested on: HOP-62
HOP-92 = tested on: HOP-92
Hs-578T = tested on: Hs-578T
KM12 = tested on: KM12
M14 = tested on: M14
Malme-3M = tested on: Malme-3M
NCI/ADR-RES = tested on: NCI/ADR-RES
OVCAR-5 = tested on: OVCAR-5
SF-539 = tested on: SF-539
SK-MEL-5 = tested on: SK-MEL-5
SK-OV-3 = tested on: SK-OV-3
SW-620 = tested on: SW-620
TK-10 = tested on: TK-10
U-251 = tested on: U-251
UACC-62 = tested on: UACC-62

Measured: GI50

O=C(Nc1ccc2ncccc2c1)Nc1ccc2ncccc2c1
inactive: 786-0 > 100 µM | A549 > 100 µM | ACHN > 100 µM | CCRF-CEM > 100 µM | COLO 205 > 100 µM | HOP-62 > 100 µM | HOP-92 > 100 µM | Hs-578T > 100 µM | KM12 > 100 µM | M14 > 100 µM | Malme-3M > 100 µM | NCI/ADR-RES > 100 µM | OVCAR-5 > 100 µM | SF-539 > 100 µM | SK-MEL-5 > 100 µM | SK-OV-3 > 100 µM | SW-620 > 100 µM | TK-10 > 100 µM | U-251 > 100 µM | UACC-62 > 100 µM

OCC(CN1CCCCC1)(CN1CCCCC1)CN1CCCCC1
inactive: 786-0 > 100 µM | A549 > 100 µM | ACHN > 100 µM | CCRF-CEM > 100 µM | COLO 205 > 100 µM | HOP-62 > 100 µM | HOP-92 > 100 µM | Hs-578T > 100 µM | KM12 > 100 µM | M14 > 100 µM | Malme-3M > 100 µM | NCI/ADR-RES > 100 µM | OVCAR-5 > 100 µM | SF-539 > 100 µM | SK-MEL-5 > 100 µM | SK-OV-3 > 100 µM | SW-620 > 100 µM | TK-10 > 100 µM | U-251 > 100 µM | UACC-62 > 100 µM

Cc1ccc(Cc2n[nH]c(=O)n2/N=C\CC/C=N\n2c(Cc3ccc(C)cc3)n[nH]c2=O)cc1
inactive: 786-0 18.5 µM | A549 > 100 µM | ACHN 47.1 µM | CCRF-CEM 4.1 µM | COLO 205 > 100 µM | HOP-62 6.37 µM | HOP-92 25.1 µM | Hs-578T 15.5 µM | KM12 > 100 µM | M14 27.3 µM | Malme-3M 33.2 µM | NCI/ADR-RES 21.1 µM | OVCAR-5 > 100 µM | SF-539 3.99 µM | SK-MEL-5 42.2 µM | SK-OV-3 36.6 µM | SW-620 43 µM | TK-10 > 100 µM | U-251 19.2 µM | UACC-62 25.8 µM
